Here are results for two compounds from patent US8772445B2, “Production and use of antitumoral cyclodepsipeptides” (Helmholtz-Zentrum Fuer Ozeanforschung Kiel (Geomar), priority 2008, dated 2014).

As a reminder, the inhibition is the percentage by which the read-out fell short of the control. Higher therefore signals strong suppression.

What all share (assay): crystal violet assay, antiproliferative effect against tumor cells
Type in all cases: cell-based

Assay [1] has as its system intestinal tumor cell line HT29. Conditions: Homo sapiens, HT-29; HT29, at 1 μg/mL, on average. As to the method: (§1) 4) Determination of the Antiproliferative Effect Against Tumor Cells
(§2) The substances Scopularid A and Scopularid B have shown significant inhibitory action against tumor cell lines, in particular pancreatic tumor cell lines Colo357 and Panc89 and also intestinal tumor cell lines HT29 (on average an inhibition between 25-50% at 1 μg/mL). This activity was determined using the crystal violet assay (Siegmund, D. et al. “Death receptor-induced signalling pathways are differentially regulated by gamma interferon upstream of caspase 8 processing.” Mol. Cell. Biol. 2005; 25: 6363-6379).

In assay [2] the test system is pancreatic tumor cell line Colo357. The settings on record: for inhibition at 1 µg/mL: Homo sapiens, Colo357, at 1 μg/mL, on average. The procedure: as §1, §2
In assay [3] the test system is pancreatic tumor cell line Panc89. Conditions: Panc89, at 1 μg/mL, on average. The procedure:
as §1, §2

SMILES strings stand for the structures.

With `CCCCCCC(C)C1CC(=O)NCC(=O)N[C@@H](C(C)C)C(=O)N[C@H](CC(C)C)C(=O)N[C@@H](C)C(=O)N[C@@H](Cc2ccccc2)C(=O)O1` (stereo partly shown) [Scopularid A], the inhibition at 1 µg/mL in assay [1], in assay [2] and in assay [3] was 25 to 50% in each case.
For the compound `CCCCC(C)C1CC(=O)NCC(=O)N[C@@H](C(C)C)C(=O)N[C@H](CC(C)C)C(=O)N[C@@H](C)C(=O)N[C@@H](Cc2ccccc2)C(=O)O1` (stereo partly shown) [Scopularid B], the inhibition at 1 µg/mL in assay [1], in assay [2] and in assay [3] was 25 to 50% throughout. In assay [2] (tumor cell lines, in particular Colo357), the “antiproliferative effect against tumor cells (in words)” value is “significant inhibitive effect”.
